Measured values published in ChEMBL document CHEMBL1201862, “PubChem BioAssay data set” (2004).
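Growth conditions: 96-well plates. Treatment: test compound, 48 hours, 5 concentrations. Analysis: linear interpolation between bracketing concentrations; unreached endpoints set to highest concentration. Abbreviation: GI50, concentration required for 50% inhibition of growth.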 The source made the active and inactive calls. Rule as the data show it: active = GI50 up to about 1.1 µM and inactive = higher.

Assays:
Assay in all cases: growth of human tumour cells (NCI), 48 h
[1] = test system: NCI/ADR-RES
[2] = test system: HCT-116
[3] = test system: A549
[4] = test system: HCT-15
[5] = test system: COLO 205
[6] = test system: UACC-257
[7] = test system: SF-268
[8] = test system: NCI-H23
[9] = test system: PC-3
[10] = test system: A498
[11] = test system: RXF 393
[12] = test system: MDA-N
[13] = test system: MOLT-4
[14] = test system: BT-549
[15] = test system: OVCAR-5
[16] = test system: U-251
[17] = test system: SF-539
[18] = test system: Hs-578T
[19] = test system: ACHN
[20] = test system: KM12
[21] = test system: MCF7
[22] = test system: HOP-62
[23] = test system: NCI-H226
[24] = test system: TK-10
[25] = test system: MDA-MB-231
[26] = test system: OVCAR-3
[27] = test system: SK-MEL-28
[28] = test system: DU-145
[29] = test system: K562
[30] = test system: LOX IMVI
[31] = test system: SNB-75
[32] = test system: SK-MEL-5
[33] = test system: SR
[34] = test system: CAKI-1
[35] = test system: Malme-3M
[36] = test system: IGROV-1
[37] = test system: SF-295
[38] = test system: HOP-92
[39] = test system: HT-29
[40] = test system: HCC 2998
[41] = test system: OVCAR-4
[42] = test system: OVCAR-8
[43] = test system: SN12C
[44] = test system: 786-0
[45] = test system: CCRF-CEM
[46] = test system: UO-31
[47] = test system: SNB-19
[48] = test system: MDA-MB-435
[49] = test system: NCI-H522
[50] = test system: SW-620
[51] = test system: RPMI-8226
[52] = test system: EKVX
[53] = test system: NCI-H460
[54] = test system: HL-60

`O=C(OCc1ccccc1)C(Cc1ccc(OCc2ccccc2)cn1)NC(=O)C(F)(F)F` (centres undefined) was tested, and the GI50 [1] was > 100 µM (inactive), the GI50 [2] was > 100 µM (inactive) and the GI50 [3] was 62.8 µM (inactive). For the same compound, the GI50 [4] was 46.3 µM, the GI50 [5] was 27.4 µM (inactive) and the GI50 [6] was > 100 µM (inactive). The GI50 [7] was 98.2 µM (inactive), the GI50 [8] was 86.9 µM (inactive) and the GI50 [9] was > 100 µM (inactive). For the same compound, the GI50 [10] was > 100 µM (inactive), the GI50 [11] was > 100 µM (inactive) and the GI50 [12] was > 100 µM (inactive). For the same compound, the GI50 [13] was 33.7 µM (inactive), the GI50 [14] was > 100 µM (inactive) and the GI50 [15] was > 100 µM (inactive). The GI50 [16] was 72.3 µM (inactive), the GI50 [17] was > 100 µM (inactive) and the GI50 [18] was > 100 µM (inactive). For the same compound, the GI50 [19] was > 100 µM (inactive), the GI50 [20] was > 100 µM (inactive) and the GI50 [21] was > 10 µM (inactive). The GI50 [22] was > 100 µM (inactive), the GI50 [23] was > 100 µM (inactive) and the GI50 [24] was > 100 µM (inactive). For the same compound, the GI50 [25] was > 100 µM (inactive), the GI50 [26] was 71.3 µM (inactive) and the GI50 [27] was > 100 µM (inactive). For the same compound, the GI50 [28] was > 100 µM (inactive), the GI50 [29] was 42.8 µM (inactive) and the GI50 [30] was 92.3 µM (inactive). For the same compound, the GI50 [31] was 3.01 µM (inactive), the GI50 [32] was 35.4 µM (inactive) and the GI50 [33] was 86.9 µM (inactive). For the same compound, the GI50 [34] was > 100 µM (inactive), the GI50 [35] was > 100 µM (inactive) and the GI50 [36] was > 100 µM (inactive). For the same compound, the GI50 [37] was > 100 µM (inactive), the GI50 [38] was > 100 µM (inactive) and the GI50 [39] was 57.9 µM (inactive). The GI50 [40] was > 100 µM (inactive), the GI50 [41] was > 100 µM (inactive) and the GI50 [42] was > 100 µM (inactive). The GI50 [43] was > 100 µM (inactive), the GI50 [44] was > 100 µM (inactive) and the GI50 [45] was > 10 µM (inactive). The GI50 [46] was 65.5 µM (inactive), the GI50 [47] was > 100 µM (inactive) and the GI50 [48] was 92.9 µM (inactive). The GI50 [49] was 79.8 µM (inactive), the GI50 [50] was > 100 µM (inactive) and the GI50 [51] was 92.5 µM (inactive). The GI50 [52] was > 100 µM (inactive), the GI50 [53] was > 100 µM (inactive) and the GI50 [54] was 56.2 µM (inactive).
